US20260184663A1, “INDENE COMPOUNDS, PHARMACEUTICAL COMPOSITIONS THEREOF, AND THEIR THERAPEUTIC APPLICATIONS” (NucMito Pharmaceuticals co. Ltd., priority 2022, published 2026)

Experiments:
Type in all cases: cell-based
[1] = system: B16F10 (malignant melanoma); test: Antiproliferative activity (CCK-8 cell viability), B16F10; details: Mus musculus, 72 h, read-out: Antiproliferative activity in cancerous cells, B16F10 (inhibition of cell growth); for inhibition at 3.3 µM: B16-F10, Compound concentration: 3.3 μM; for inhibition at 10 µM: B16-F10, Compound concentration: 10 μM
Outline: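 Attached B16F10 cells in 96-well plates were incubated with compound at 37° C for 72 h, followed by 10 μL CCK-8 reagent per well and a further 4 h incubation. A multi-well plate reader measured absorbance at 450 nm. Percent viability across replicates was calculated against DMSO vehicle-treated cells.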

[2] = system: HeLa (cervical cancer); test: Antiproliferative activity (CCK-8 cell viability), HeLa; details: Homo sapiens, 72 h, read-out: Antiproliferative activity in cancerous cells, HELA (inhibition of cell growth); for inhibition at 3.3 µM: Compound concentration: 3.3 μM; for inhibition at 10 µM: Compound concentration: 10 μM
Outline: (§1)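 Cells were seeded at 2,000-5,000/well (HeLa in MEM, HepG2 and SW480 in DMEM, A549 in F-12K, all with 10% FBS) and treated with compound at 3.3, 10 or 30 μM for 72 h at 37° C. CCK-8 was added for 4 h, absorbance was read at 450 nm, and viability was expressed relative to DMSO-treated wells.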

[3] = system: A431 (epidermoid carcinoma); test: Antiproliferative activity (CCK-8 cell viability), A431; details: Homo sapiens, 72 h, read-out: Antiproliferative activity in cancerous cells, A431 (inhibition of cell growth); for inhibition at 3.3 µM: A-431, Compound concentration: 3.3 μM; for inhibition at 10 µM: A-431, Compound concentration: 10 μM
Outline: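 Cell viability of compound-treated A431 cells was measured with a Cell Counting Kit-8. Each well received 10 μL of CCK-8 after 72 h of compound exposure, followed by 4 h incubation at 37° C. and a 450 nm plate-reader measurement. Percent viability was calculated relative to DMSO controls across replicates.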

[4] = system: SW480 (colon cancer); test: Antiproliferative activity (CCK-8 cell viability), SW480; details: Homo sapiens, 72 h; for inhibition at 3.3 µM: Compound concentration: 3.3 μM; for inhibition at 3.3 µM / inhibition at 10 µM: read-out: Antiproliferative activity in cancerous cells, SW480 (inhibition of cell growth); for inhibition at 10 µM: Compound concentration: 10 μM; for inhibition at 30 µM: Compound concentration: 30 μM, read-out: Antiproliferative activity in cancerous cells, SW480
Outline: as §1

[5] = system: MDA-MB-231 (breast cancer); test: Antiproliferative activity (CCK-8 cell viability), MDA-MB-231; details: Homo sapiens, 72 h, read-out: Antiproliferative activity in cancerous cells, MDA-MB-231 (inhibition of cell growth); for inhibition at 3.3 µM: Compound concentration: 3.3 μM; for inhibition at 10 µM: Compound concentration: 10 μM
Outline: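 In this CCK-8 viability assay, MDA-MB-231 cells maintained in Dulbecco's modified Eagle's medium containing 10% fetal bovine serum were placed in 96-well plates (2,000-5,000 cells/well) and treated with compound for 72 h at 37° C. A 4 h incubation with 10 μL CCK-8 followed, plates were read at 450 nm, and viability was expressed against DMSO vehicle wells across replicates.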

[6] = system: HepG2 (liver cancer); test: Antiproliferative activity (CCK-8 cell viability), HepG2; details: Homo sapiens, 72 h, read-out: Antiproliferative activity in cancerous cells, HepG2 (inhibition of cell growth); for inhibition at 3.3 µM: Compound concentration: 3.3 μM; for inhibition at 10 µM: Compound concentration: 10 μM
Outline: as §1

[7] = system: A549 (lung adenocarcinoma); test: Antiproliferative activity (CCK-8 cell viability), A549; details: Homo sapiens, 72 h; for inhibition at 3.3 µM: Compound concentration: 3.3 μM; for inhibition at 3.3 µM / inhibition at 10 µM: read-out: Antiproliferative activity in cancerous cells, A549 (inhibition of cell growth); for inhibition at 10 µM: Compound concentration: 10 μM
Outline: as §1

Structure (SMILES) | inhibition at 3.3 µM [1] [%] | inhibition at 10 µM [1] [%] | inhibition at 3.3 µM [2] [%] | inhibition at 10 µM [2] [%] | inhibition at 3.3 µM [3] [%] | inhibition at 10 µM [3] [%] | inhibition at 3.3 µM [4] [%] | inhibition at 10 µM [4] [%] | inhibition at 3.3 µM [5] [%] | inhibition at 10 µM [5] [%] | inhibition at 3.3 µM [6] [%] | inhibition at 10 µM [6] [%] | inhibition at 3.3 µM [7] [%] | inhibition at 10 µM [7] [%] | inhibition at 30 µM ([7]; Compound concentration: 30 μM, read-out: Antiproliferative activity in cancerous cells, A549) [%] | inhibition at 30 µM [4] [%]
CC1=C(CC(=O)O)c2cc(F)ccc2/C1=C\c1ccc(Oc2ccc(Cl)cc2F)cc1 [C52, (Z)-2-(1-(4-(4-Chloro-2-fluorophenoxy)benzylidene)-5-fluoro-2-methyl-1H-inden-3-yl)acetic acid] | ≥ 50 | ≥ 50 | 30 to 50 | ≥ 50 | ≥ 50 | ≥ 50 | < 30 | ≥ 50 | 30 to 50 | ≥ 50 | < 30 | ≥ 50 | 30 to 50 | ≥ 50 |  | 
CC1=C(CC(=O)O)c2cc(F)ccc2/C1=C\c1ccc(Oc2ccc(F)c(Br)c2)cc1 [C53, (Z)-2-(1-(4-(3-Bromo-4-fluorophenoxy)benzylidene)-5-fluoro-2-methyl-1H-inden-3-yl)acetic acid] | < 30 | ≥ 50 | < 30 | ≥ 50 | ≥ 50 | ≥ 50 | < 30 | ≥ 50 | ≥ 50 | ≥ 50 | < 30 | ≥ 50 | < 30 | 30 to 50 |  | 
CC1=C(CC(=O)O)c2cc(F)ccc2/C1=C\c1ccc(Oc2ccc(F)c(Cl)c2)cc1 [C54, (Z)-2-(1-(4-(3-Chloro-4-fluorophenoxy)benzylidene)-5-fluoro-2-methyl-1H-inden-3-yl)acetic acid] | ≥ 50 | ≥ 50 | < 30 | ≥ 50 | ≥ 50 | ≥ 50 | < 30 | ≥ 50 | < 30 | ≥ 50 | < 30 | 30 to 50 | < 30 | < 30 | < 30 | 
CC1=C(CC(=O)O)c2cc(F)ccc2/C1=C\c1ccc(Oc2ccc(Cl)cc2C)cc1 [C55, (Z)-2-(1-(4-(4-Chloro-2-methylphenoxy)benzylidene)-5-fluoro-2-methyl-1H-inden-3-yl)acetic acid] | ≥ 50 | ≥ 50 | ≥ 50 | ≥ 50 | 30 to 50 | ≥ 50 | < 30 | ≥ 50 | < 30 | ≥ 50 | < 30 | ≥ 50 | < 30 | < 30 |  | 
CC1=C(CC(=O)O)c2cc(F)ccc2/C1=C\c1ccc(Oc2ccc(Cl)c(F)c2)cc1 [C56, (Z)-2-(1-(4-(4-Chloro-3-fluorophenoxy)benzylidene)-5-fluoro-2-methyl-1H-inden-3-yl)acetic acid] | ≥ 50 | ≥ 50 | ≥ 50 | ≥ 50 | ≥ 50 | ≥ 50 | < 30 | ≥ 50 | ≥ 50 | ≥ 50 | < 30 | < 30 | < 30 | < 30 |  | 
CC1=C(CC(=O)O)c2cc(F)ccc2/C1=C\c1ccc(Oc2ccc(I)cc2)cc1 [C57, (Z)-2-(5-Fluoro-1-(4-(4-iodophenoxy)benzylidene)-2-methyl-1H-inden-3-yl)acetic acid] | ≥ 50 | ≥ 50 | < 30 | ≥ 50 | 30 to 50 | ≥ 50 | < 30 | ≥ 50 | < 30 | ≥ 50 | 30 to 50 | ≥ 50 | 30 to 50 | ≥ 50 |  | 
COc1cc(Oc2ccc(Cl)cc2)ccc1/C=C1/C(C)=C(CC(=O)O)c2cc(F)ccc21 [C58, (Z)-2-(1-(4-(4-Chlorophenoxy)-2-methoxybenzylidene)-5-fluoro-2-methyl-1H-inden-3-yl)acetic acid] | ≥ 50 | ≥ 50 | ≥ 50 | ≥ 50 | ≥ 50 | ≥ 50 | < 30 | < 30 | < 30 | < 30 | ≥ 50 | ≥ 50 | ≥ 50 | ≥ 50 |  | 30 to 50
CC1=C(CC(=O)O)c2cc(F)ccc2/C1=C\c1ccc(Oc2ccc(Cl)cc2)cc1Cl [C59, (Z)-2-(1-(2-Chloro-4-(4-chlorophenoxy)benzylidene)-5-fluoro-2-methyl-1H-inden-3-yl)acetic acid] | < 30 | ≥ 50 | ≥ 50 | ≥ 50 | ≥ 50 | ≥ 50 | < 30 | ≥ 50 | < 30 | < 30 | ≥ 50 | ≥ 50 | 30 to 50 | ≥ 50 |  | 
CC1=C(CC(=O)O)c2cc(F)ccc2/C1=C\c1ccc(Oc2ccc(Cl)cc2)cc1 [C60, (Z)-2-(1-(4-(4-Chlorophenoxy)benzylidene)-5-fluoro-2-methyl-1H-inden-3-yl)acetic acid] | 30 to 50 | 30 to 50 | ≥ 50 | ≥ 50 | ≥ 50 | ≥ 50 | < 30 | < 30 | < 30 | < 30 | ≥ 50 | ≥ 50 | 30 to 50 | ≥ 50 |  | 30 to 50
CC1=C(CC(=O)O)c2cc(F)ccc2/C1=C\c1ccc(Oc2cccc(Cl)c2)cc1 [C61, (Z)-2-(1-(4-(3-Chlorophenoxy)benzylidene)-5-fluoro-2-methyl-H-inden-3-yl)acetic acid] | < 30 | < 30 | 30 to 50 | ≥ 50 | ≥ 50 | ≥ 50 | < 30 | < 30 | < 30 | < 30 | 30 to 50 | 30 to 50 | 30 to 50 | ≥ 50 |  | < 30
